Test results as given in patent US12655173B2, “Hybrid amide derivatives of amphotericin B” (priority 2020, dated 2026).
≈ marks a conversion by molar mass, not a printed value. Like-named read-outs stand apart in the source and are kept apart here.

Legend:
yeast = assay: MICavg / Average MIC against yeasts; type: cell-based; details: for MIC: 46 isolates, Table 3
moulds = assay: MICavg / Average MIC against moulds; type: cell-based; details: for MIC: 157 isolates, Table 2
[1] = UV-Vis sterol binding assay
Experimental: UV-Vis is Binding Assay (FIG. 1A): The protocol for the sterol binding assay (UV-Vis) was developed in our lab. Compounds were dissolved in DMSO at a final concentration of 1 mM. Sterol were first dissolved in CHCl3 (>200 mM) and then diluted to 1 mM concentration with DMSO To synthesize the complex 1 ul of compound solution was taken in a clean eppendorf tube (2 ml) and sterol solution (volume depends on the stoichiometry) was added to it and the volume was made up to 20 ul with DMSO. 0.98 ml of PBS buffer was added to the Eppendorf tube and mixed properly. The absorbance of the solution was measured after 30 mins of incubation.

[2] = Blood plasma stability, mouse; type: in vitro ADME
[3] = Blood plasma stability, human; type: in vitro ADME
A. niger = assay: MIC against moulds; type: cell-based; details: 6 isolates, AmB (AmBisome)
A. calldoustus = assay: MIC against moulds; type: cell-based; details: 6 isolates; AmB (AmBisome)
A. lentulus = assay: MIC against moulds; type: cell-based; details: 6 isolates, AmB (AmBisome)
Mucor circinelloides = assay: MIC against moulds; type: cell-based; details: for MIC Mucor circinelloides: 6 isolates, AmB (AmBisome)
Mucor velutinosus = assay: MIC against moulds; type: cell-based; details: 6 isolates, AmB (AmBisome)
Histoplasma capsulatum = assay: microbe, parasite or virus in culture; type: cell-based; details: for MIC Histoplasma capsulatum: 6 isolates, AmB (AmBisome)
Fusarium oxysporum = assay: MIC against moulds; type: cell-based; details: 6 isolates, AmB (AmBisome)
[4] = test system: P. variotii MYA-3630 (QC); assay: MIC against moulds; type: cell-based; details: 5 isolates, AmB (AmBisome)
Licht. Corymbifera = assay: MIC against moulds; type: cell-based; details: 6 isolates, AmB (AmBisome)
Licht. Ramosa = assay: MIC against moulds; type: cell-based; details: 6 isolates; AmB (AmBisome)
Syncephalastrum sp. = assay: MIC against moulds; type: cell-based; details: 6 isolates, AmB (AmBisome)
Claophialophora bantiana = assay: MIC against moulds; type: cell-based; details: 6 isolates; AmB (AmBisome)
Blastomyces dermatitidis = assay: MIC against moulds; type: cell-based; details: 5 isolates, AmB (AmBisome)
Fonsecaeu sp. = assay: MIC against moulds; type: cell-based; details: 6 isolates; AmB (AmBisome)
Talaromyces marneffei = assay: MIC against moulds; type: cell-based; details: 6 isolates, AmB (AmBisome)
Apophysomyces sp. = assay: MIC against moulds; type: cell-based; details: 3 isolates; AmB (AmBisome)
Saksenaea sp. = assay: MIC against moulds; type: cell-based; details: 4 isolates; AmB (AmBisome)
Cryptococcus neoformans = assay: MIC against yeasts; type: cell-based
Cryptococcus gattii = assay: MIC against yeasts; type: cell-based
Scedosporium aurantiacum = assay: MIC against rare moulds resistant to AmB; type: cell-based; details: 4 isolates, Table 4
Scedosporium boydii = assay: MIC against rare moulds resistant to AmB; type: cell-based; details: 6 isolates, Table 4
[5] = Liver microsome stability; details: rat, dog, monkey; for Liver microsome (T1/2, min): Mouse, human: All species
[6] = 10 isolates, Table 3, read-out: MIC Cryptococcus gattii

Row | SMILES | MICavg yeast (5 strains) (yeast) | MIC (yeast) [µM] | MICavg yeast (46 strains) (yeast) | MICavg moulds (3 strains) (moulds) | MIC (moulds) [µM] | MICavg moulds (159 strains) (moulds) | Binds Cholesterol [1] | Blood Plasma Stability (T1/2, min) Mouse [2] | Blood Plasma Stability (T1/2, min) Human [3] | MIC (A. niger) [µM] | MIC (A. calldoustus) [µM] | MIC (A. lentulus) [µM] | MIC Mucor circinelloides (Mucor circinelloides) [µM] | MIC (Mucor velutinosus) [µM] | MIC Histoplasma capsulatum (Histoplasma capsulatum) [µM] | MIC (Licht. Ramosa) [µM] | MIC (Claophialophora bantiana) [µM] | MIC (Fonsecaeu sp.) [µM] | MIC (Apophysomyces sp.) [µM] | MIC (Saksenaea sp.) [µM] | also measured
1 | CC1C=CC=CC=CC=CC=CC=CC=CC(OC2OC(C)C(O)C(N)C2O)CC2OC(O)(CC(O)CC(O)C(O)CCC(O)CC(O)CC(=O)OC(C)C(C)C1O)CC(O)C2C(=O)NC(CO)CO (centres unmarked) [Compound 1] | 0.53 | 2.1 (≈ 2.09 µg/mL) | 2.1 | 1.6 | 1.4 (≈ 1.4 µg/mL) | 1.4 | No | >289; >289 min | >289; >289 min | 0.5 (≈ 0.499 µg/mL) | 2.17 (≈ 2.16 µg/mL) | 2.33 (≈ 2.32 µg/mL) | 0.58 (≈ 0.578 µg/mL) | 0.67 (≈ 0.668 µg/mL) | 0.06 (≈ 0.0598 µg/mL) | 0.58 (≈ 0.578 µg/mL) | 1.17 (≈ 1.17 µg/mL) | <0.03 | 6.8 (≈ 6.78 µg/mL) | 0.23 (≈ 0.229 µg/mL) | MIC (Fusarium oxysporum): 6 µM (≈ 5.98 µg/mL); MIC [4]: 2 µM (≈ 1.99 µg/mL); MIC (Licht. Corymbifera): 0.5 µM (≈ 0.499 µg/mL); MIC (Syncephalastrum sp.): 0.5 µM (≈ 0.499 µg/mL); MIC (Blastomyces dermatitidis): 0.25 µM (≈ 0.249 µg/mL); MIC (Talaromyces marneffei): 0.12 µM (≈ 0.12 µg/mL); MIC (Cryptococcus neoformans; 10 isolates, Table 3): 2 µM (≈ 1.99 µg/mL); MIC (Cryptococcus gattii; [6]): 1.6 µM (≈ 1.6 µg/mL); MIC (Scedosporium aurantiacum): >16 µM; MIC (Scedosporium boydii): >16 µM; Liver microsome (T1/2, min) [5]: >145 min
2 | C[C@@H]1[C@H](O)[C@@H](C)/C=C/C=C/C=C/C=C/C=C/C=C/C=C/[C@H](OC2O[C@H](C)[C@@H](O)[C@H](N)[C@@H]2O)C[C@@H]2O[C@](O)(C[C@@H](O)C[C@@H](O)[C@H](O)CC[C@@H](O)C[C@@H](O)CC(=O)O[C@H]1C)C[C@H](O)[C@H]2C(=O)O (some centres unmarked) [AmB, Amphotericin B] | 0.23 | 0.9 (≈ 0.832 µg/mL) | 0.9 | 0.92 | 0.9 (≈ 0.832 µg/mL) | 0.9 | Yes | – | – | – | 1.5 (≈ 1.39 µg/mL) | – | – | – | – | 0.15 (≈ 0.139 µg/mL) | 0.375 (≈ 0.347 µg/mL) | < 0.03 | 0.75 (≈ 0.693 µg/mL) | 0.06 (≈ 0.0554 µg/mL) | half-life ([2]; mouse, blood plasma, read-out: Blood Plasma Stability (T1/2, min) Mouse): > 289 min; half-life ([3]; human, blood plasma, read-out: Blood Plasma Stability (T1/2, min) Human): > 289 min; MIC (A. niger; Aspergillus niger): 0.21 µM (≈ 0.194 µg/mL); MIC (A. lentulus; Aspergillus lentulus): 3.75 µM (≈ 3.47 µg/mL); MIC (Mucor circinelloides; Mucor circinelloides, read-out: MIC Mucor circinelloides): 0.125 µM (≈ 0.116 µg/mL); MIC (Mucor velutinosus; Mucor velutinosus): 0.08 µM (≈ 0.0739 µg/mL); MIC (Histoplasma capsulatum; Histoplasma capsulatum, read-out: MIC Histoplasma capsulatum): 0.06 µM (≈ 0.0554 µg/mL); MIC (Fusarium oxysporum; Fusarium oxysporum): 1.5 µM (≈ 1.39 µg/mL); MIC ([4]; Paecilomyces variotii): 1 µM (≈ 0.924 µg/mL); MIC (Licht. Corymbifera; Lichtheimia corymbifera): 0.23 µM (≈ 0.213 µg/mL); MIC (Syncephalastrum sp.; Syncephalastrum): 0.06 µM (≈ 0.0554 µg/mL); MIC (Blastomyces dermatitidis; Blastomyces dermatitidis): < 0.03 µM; MIC (Talaromyces marneffei; Talaromyces marneffei): 0.09 µM (≈ 0.0832 µg/mL); MIC (Cryptococcus neoformans; Cryptococcus neoformans, 3 isolates, Table 3A): 1.17 µM (≈ 1.08 µg/mL); MIC (Cryptococcus neoformans; Cryptococcus neoformans, 10 isolates, Table 3): 0.55 µM (≈ 0.508 µg/mL); MIC (Cryptococcus gattii; Cryptococcus gattii, 1 isolate, Table 3A, read-out: MIC Cryptococcus gatti): 1 µM (≈ 0.924 µg/mL); MIC (Cryptococcus gattii; Cryptococcus gattii, 10 isolates, Table 3, read-out: MIC Cryptococcus gattii): 0.75 µM (≈ 0.693 µg/mL); MIC (Scedosporium aurantiacum; Scedosporium aurantiacum): > 16 µM; MIC (Scedosporium boydii; Scedosporium boydii): > 16 µM; half-life ([5]; mouse, human, liver microsomes): > 2.42 h
3 | CC1C=CC=CC=CC=CC=CC=CC=CC(OC2OC(C)C(O)C(N)C2O)CC2OC(O)(CC(O)CC(O)C(O)CCC(O)CC(O)CC(=O)OC(C)C(C)C1O)CC(O)C2C(=O)NC(CO)(CO)CO (centres unmarked) [Compound 2] | 0.41 | 2.3 (≈ 2.36 µg/mL) | 2.3 | 1 | 2.6 (≈ 2.67 µg/mL) | 2.6 | No | 265.1 min | > 289 min | 0.75 (≈ 0.77 µg/mL) | 2.33 (≈ 2.39 µg/mL) | 4.33 (≈ 4.45 µg/mL) | 0.92 (≈ 0.945 µg/mL) | 1.17 (≈ 1.2 µg/mL) | 0.08 (≈ 0.0822 µg/mL) | 0.75 (≈ 0.77 µg/mL) | 1.83 (≈ 1.88 µg/mL) | <0.03 | 8.3 (≈ 8.53 µg/mL) | 0.36 (≈ 0.37 µg/mL) | MIC (Fusarium oxysporum): 13.3 µM (≈ 13.7 µg/mL); MIC [4]: 2.67 µM (≈ 2.74 µg/mL); MIC (Licht. Corymbifera): 1 µM (≈ 1.03 µg/mL); MIC (Syncephalastrum sp.): 1 µM (≈ 1.03 µg/mL); MIC (Blastomyces dermatitidis): 0.6 µM (≈ 0.616 µg/mL); MIC (Talaromyces marneffei): 0.21 µM (≈ 0.216 µg/mL); MIC (Cryptococcus neoformans; 10 isolates, Table 3): 2 µM (≈ 2.05 µg/mL); MIC (Cryptococcus gattii; [6]): 2 µM (≈ 2.05 µg/mL); MIC (Scedosporium aurantiacum): >16 µM; MIC (Scedosporium boydii): >16 µM; Liver microsome (T1/2, min) [5]: >145 min
